Measurements: article PMC8490629, “Metabolites of Procyanidins From Litchi Chinensis Pericarp With Xanthine Oxidase Inhibitory Effect and Antioxidant Activity” (Frontiers in Nutrition, 2021)
Like-named read-outs stand apart in the source and are kept apart here. Marks after values point to notes of the source that are not given here.

Columns and labels:
[1] = Hydroxyl radical scavenging activity
Procedure: Hydroxyl radical scavenging activity was assessed according to the method of Dong et al. ([42]) with modifications. The reagents and samples were added strictly obeying following order: 0.25 ml 1.5 mM phenanthroline ethanolic solution, 0.5 ml phosphoric acid buffer (pH = 7.4), 0.25 ml 1.5 mM freshly prepared ferrous sulfate solution, 0.5 ml sample (0–0.5 mg), and 0.25 ml 0.01% H2O2. The injured tubes in the experiment were prepared by the same reagents except samples, while control was carried out by adding sample without H2O2. The mixtures were shaken and incubated at 37°C for 1 h, and then measured at 536 nm. The hydroxyl radical scavenging activity was calculated using the following equation:
hydroxyl radical scavenging rate (%) =Asample-Ainjured/Acontrol-Ainjured ×100

[2] = Urinary excretion of procyanidins and metabolites in rats after oral LPPC (HPLC / LC-MS); format: in vivo, rat; details: for Urinary excretion, procyanidin (% to oral dose) / Urinary excretion, phenolic acids: rat urine 0-24 h after oral LPPC 300 mg/kg, after glucuronidase/sulfatase deconjugation; for Urinary excretion as share of the oral intake: rat urine, oral LPPC 300 mg/kg bw
Procedure: Male Sprague-Dawley rats weighing 220 ± 20 g were randomly divided into two groups (n = 20) with 10 rats in each group. Prior to administration, animals were deprived of food for 12 h, but had access to deionized water. The LPPC was dissolved in physiological saline and administered orally to rats at a dose of 300 mg/kg body weight. In addition, the physiological saline was administered orally to the rats in another group as control. All the rats were placed in metabolic cages, each rat per cage (Jiayuan Technology Co. Ltd., Beijing, China). The samples of urine excreted from 0 to 24 h postadministration were collected from the bottom of the metabolic cage under chilled conditions using an ice bath and stored at −80°C before analysis, referring to the method described previously ([38]).
The sample of urine was centrifuged at 4,000 r/min for 10 min at 4°C, and the supernatant was collected. The supernatant was acidified to pH = 5.5 with 0.6 mol/l acetic acid and incubated at 37°C for 60 min in the presence of 10 KU β-glucuronidase with the activity of sulfatase. After further acidification to pH = 2 with 6 mol/l HCl, the samples were directly extracted by ethyl acetate × 3. The resulting supernatant was dried under vacuum by rotatory evaporation at 40°C until the ethyl acetate was completely removed and dissolved in 1 ml of 50% methanol. Then, the solution was purified by the solid phase extraction, and the residue was redissolved in methanol and analyzed by LC-MS as described by Li et al. with modifications ([39]).
Selected samples were analyzed on an Agilent 1100 LC-ESI-MS system (Agilent Technologies Co. Ltd., Foster City, California, USA) to identify metabolites in urine. A VP-ODS column (150 × 4.6 mm ID, 5 μm particle size, Shimadzu Co., Kyoto, Japan) was used and 20 μl solution of the sample was injected. The mobile phases consisted of 0.4% (v/v) aqueous acetic acid as A and acetonitrile as B with the following linear gradient: from 5 to 35% B in the first 40 min, from 35 to 50% B in the next 5 min, from 50 to 80% B in the next 5 min, and from 80 to 5% B in the next 5 min, and re-equilibrated with 5% B for 5 min before next injection. The flow rate was 0.2 ml/min and the absorbance of the eluate was monitored at 280 nm. Mass spectra were collected using an electrospray ionization (ESI) ion source in the negative mode under the following conditions: orifice voltage, −30 V; nebulizing pressure, 30 psi; heat capillary temperature, 275°C; and mass range, m/z 100-1,200.

[3] = molecular target: T1, xanthine oxidase (Bos taurus, UniProt P80457); assay: Xanthine oxidase inhibition assay (uric acid production from xanthine, 295 nm); format: biochemical; details: for IC50: read-out: IC50 (μg/ml) xanthine oxidase (converted); for inhibition at 200 µg/mL: read-out: Inhibition (%) at 200 μg/ml
T1 construct: purchased Sigma (St. Louis, MO, USA)
T1 sequence (P80457 2-1332 limits assumed): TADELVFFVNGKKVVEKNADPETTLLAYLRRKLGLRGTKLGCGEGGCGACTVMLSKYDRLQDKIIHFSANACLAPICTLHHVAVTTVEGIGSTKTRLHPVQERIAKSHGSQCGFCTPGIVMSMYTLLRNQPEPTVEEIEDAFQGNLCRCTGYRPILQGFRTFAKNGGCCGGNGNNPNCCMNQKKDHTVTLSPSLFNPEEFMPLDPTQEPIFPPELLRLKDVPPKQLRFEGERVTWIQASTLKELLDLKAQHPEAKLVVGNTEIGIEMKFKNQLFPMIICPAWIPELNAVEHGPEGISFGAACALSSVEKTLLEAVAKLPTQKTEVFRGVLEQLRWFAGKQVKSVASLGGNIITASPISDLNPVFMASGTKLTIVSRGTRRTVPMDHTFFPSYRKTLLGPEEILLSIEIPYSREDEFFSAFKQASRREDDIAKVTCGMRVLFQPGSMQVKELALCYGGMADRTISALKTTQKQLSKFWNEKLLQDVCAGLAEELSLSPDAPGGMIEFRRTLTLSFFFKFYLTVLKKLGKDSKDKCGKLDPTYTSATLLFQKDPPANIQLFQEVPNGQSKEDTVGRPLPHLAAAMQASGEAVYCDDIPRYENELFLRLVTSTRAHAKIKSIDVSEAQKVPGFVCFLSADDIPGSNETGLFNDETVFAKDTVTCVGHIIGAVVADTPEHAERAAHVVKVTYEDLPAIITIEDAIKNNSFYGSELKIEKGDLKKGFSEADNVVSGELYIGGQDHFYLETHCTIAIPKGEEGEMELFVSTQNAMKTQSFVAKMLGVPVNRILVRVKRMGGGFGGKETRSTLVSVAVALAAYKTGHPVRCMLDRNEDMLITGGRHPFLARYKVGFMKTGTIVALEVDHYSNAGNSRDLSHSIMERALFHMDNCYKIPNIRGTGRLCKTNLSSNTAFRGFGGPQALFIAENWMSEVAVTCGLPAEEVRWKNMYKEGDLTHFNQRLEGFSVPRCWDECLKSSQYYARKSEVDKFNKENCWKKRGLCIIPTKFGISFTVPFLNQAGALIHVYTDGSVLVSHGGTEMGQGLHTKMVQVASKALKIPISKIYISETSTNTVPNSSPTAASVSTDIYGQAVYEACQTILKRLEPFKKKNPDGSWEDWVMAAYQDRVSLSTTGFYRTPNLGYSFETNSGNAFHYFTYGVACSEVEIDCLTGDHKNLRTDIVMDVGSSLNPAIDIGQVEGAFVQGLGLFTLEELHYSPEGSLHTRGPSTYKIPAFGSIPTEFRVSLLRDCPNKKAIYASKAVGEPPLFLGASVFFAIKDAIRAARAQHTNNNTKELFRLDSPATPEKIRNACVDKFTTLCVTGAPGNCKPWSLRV

[4] = DPPH radical scavenging activity
Procedure: 1, 1-Diphenyl-2-picrylhydrazyl radical scavenging activity was determined referring to the method described previously ([41]). Litchi pericarp and phenolic acids were dissolved in 1.0 ml of deionized water at various concentrations ranging from 2.0 to 100.0 μg/ml. Then, the solution of the sample was mixed with 1.0 ml of freshly prepared 0.2 mM DPPH ethanolic solution. Control in the experiment was prepared by the same reagent without the sample. All the tubes were incubated at 37°C for 30 min in the dark, and the final solution was recorded at 517 nm. The DPPH radical scavenging activity was calculated using the following equation:
DPPH radical scavenging rate (%) =(Acontrol-Asample)/Acontrol × 100

Row | SMILES | IC50 (μg/ml) ·OH [1] | Urinary excretion, procyanidin (% to oral dose) [2] | Urinary excretion as share of the oral intake [2] | IC50 [3] [µM] | inhibition at 200 µg/mL ([3]; xanthine oxidase, 200 μg/ml) [%] | IC50 (μg/ml) DPPH· [4] | Urinary excretion, phenolic acids [2] [nmol] | IC50 (μg/ml) DPPH· ([4]; listed as 3-hydroxyphenylpropionic acid) [µg/mL] | IC50 (μg/ml) DPPH· ([4]; listed as 4-hydroxyphenylpropionic acid) [µg/mL] | Inhibition (%) at 200 μg/ml ([3]; xanthine oxidase, 200 μg/ml) | Inhibition (%) at 200 μg/ml ([3]; xanthine oxidase, 200 μg/ml, listed as epicatechin) | inhibition at 200 µg/mL [3] [%] | IC50 (μg/ml) DPPH· ([4]; listed as 3-hydroxyphenylacetic acid) [µg/mL] | IC50 (μg/ml) DPPH· ([4]; listed as vanillic acid) [µg/mL]
1 | Oc1cc(O)c2c(c1)OC1(c3ccc(O)c(O)c3)Oc3cc(O)c4c(c3C2C1O)OC(c1ccc(O)c(O)c1)C(O)C4c1c(O)cc(O)c2c1OC(c1ccc(O)c(O)c1)C(O)C2 (stereo not drawn) [A-type trimer] | 122.73 ± 2.35^a μg/ml | 0.43 ± 0.02 % to oral dose | 0.43 ± 0.02 % (mol/mol) | 86.6 | > 50 | 8.00 ± 0.18^b μg/ml |  |  |  |  |  |  |  | 
2 | O=C(O)CCc1cccc(O)c1 [3-Hydroxyphenylpropionic acid, 3-hydroxyphenylpropionic acid] | 841.57 ± 4.45^h μg/ml |  |  | > 1200 | 27 ± 1.44 | 77.83 ± 0.93^g μg/ml | 12.87 ± 3.06 | > 50 |  |  |  |  |  | 
3 | O=C(O)CCc1ccc(O)cc1 [4-Hydroxyphenylpropionic acid, 4-hydroxyphenylpropionic acid] | 813.87 ± 5.48^g μg/ml |  |  | > 1200 | 29.4 ± 0.75 | 74.63 ± 1.40^f μg/ml | 60.54 ± 3.18 |  | > 50 |  |  |  |  | 
4 | Oc1cc(O)c2c(c1)OC1(c3ccc(O)c(O)c3)Oc3cc(O)c4c(c3C2C1O)OC(c1ccc(O)c(O)c1)C(O)C4 (stereo not drawn) [A-type dimer] | 126.57 ± 2.58^a μg/ml | 0.54 ± 0.09 % to oral dose | 0.54 ± 0.09 % (mol/mol) | 119 |  | 5.86 ± 0.14^a μg/ml |  |  |  |  |  |  |  | 
5 | O=C(O)C1=C[C@@H](O)[C@@H](O)[C@H](O)C1 [Shikimic acid, shikimic acid] | 186.53 ± 7.56^d μg/ml |  |  | 552 | > 50 | 8.96 ± 0.18b^c μg/ml | 27.22 ± 7.02 |  |  | 61.13 ± 0.81^f % |  |  |  | 
6 | O=C(O)/C=C/c1ccc(O)c(O)c1 [Caffeic acid, caffeic acid] | 161.47 ± 3.31^c μg/ml |  |  | 531 |  | 9.88 ± 0.55^c μg/ml | 20.67 ± 2.68 |  |  |  |  |  |  | 
7 | Oc1cc(O)c2c(c1)O[C@H](c1ccc(O)c(O)c1)[C@H](O)C2 [(-)-Epicatechin, (-)-epicatechin] | 121.27 ± 1.80^a μg/ml | 0.21 ± 0.04 % to oral dose | 0.21 ± 0.04 % (mol/mol) | 201 |  | 5.43 ± 0.10^a μg/ml |  |  |  | 78.63 ± 1.72^b % | higher than 50% |  |  | 
8 | O=C(O)/C=C/c1ccc(O)cc1 [p-Coumaric acid, p-coumaric acid] | 220.13 ± 4.57^e μg/ml |  |  | 852 | 57.4 ± 0.62 | 16.53 ± 0.65^d μg/ml | 13.89 ± 1.65 |  |  |  |  |  |  | 
9 | Oc1ncnc2[nH]ncc12 [Allopurinol, reference compound] |  |  |  |  |  |  |  |  |  |  |  | 85.6 ± 3.13 |  | 
10 | O=C(O)Cc1cccc(O)c1 [3-Hydroxyphenylacetic acid, 3-hydroxyphenylacetic acid] | 803.47 ± 6.38^g μg/ml |  |  | > 1310 | 21.1 ± 1.78 | 82.60 ± 1.95^h μg/ml | 46.98 ± 3.76 |  |  |  |  |  | > 50 | 
11 | O=C(O)/C=C/c1cccc(O)c1 [m-Coumaric acid, m-coumaric acid] | 256.43 ± 9.33^f μg/ml |  |  | 942 | 52.8 ± 1.57 | 21.93 ± 1.25^e μg/ml | 39.01 ± 7.33 |  |  |  |  |  |  | 
12 | COc1cc(C(=O)O)ccc1O [Vanillic acid, vanillic acid] | 897.33 ± 9.90^i μg/ml |  |  | > 1190 |  | 86.06 ± 1.33^i μg/ml | 6.62 ± 2.79 |  |  |  |  | 25 ± 1.47 |  | > 50
